{
  "source": "the supplement of paper PMC11208160",
  "test": "recombinant UMI read abundance after kanamycin selection (control-corrected) (log10(CPM+1)); higher = more efficient recombination; extreme values may be limits of the assay; sequences stand for … in AGTGCAGAGAAAATCGGCCAGTTTTCTCTGCCTGCAGTCCGCATGCCGTGGGACCCCTTGGGTTCTAACCTGTTGCCTAGATTTATGCAGCGGACTGCCTTTCTCCCAAAGTGATAAACCGG…AGGTTGGTTTCACT; site = the 11-nt donor",
  "method_in_brief": "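In Escherichia coli, a pool of donor and donor-binding-loop pairs, each with a 12-nt UMI, was tested for the IS621 bridge recombinase. Plating was on IPTG (0.07 mM) plus kanamycin, or without selection, in two replicates. Recombinant UMIs were amplified by PCR across the donor–target junction and sequenced, and counts were reported as log10(CPM+1) after averaging and control-derived scaling.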",
  "data": [
    {"sequence": "GTAGTCTCATGGACCGGTTTTCCCGGTAATCCGTATTTGCG (site GTAGTCGCTCG)", "values": [
      {"measurement": "recombinant UMI read abundance (log10)", "value": 0.176}
    ]},
    {"sequence": "GTAGTCTCATGGACCGGTTTTCCCGGTAATCCGTATTTGCG (site GTAGTCTCTCG)", "values": [
      {"measurement": "recombinant UMI read abundance (log10)", "value": 3}
    ]},
    {"sequence": "GTAGTTGCATGGACCGGTTTTCCCGGTAATCCGTATTTGCG (site GTAGTAGCTCG)", "values": [
      {"measurement": "recombinant UMI read abundance (log10)", "value": 2.05}
    ]},
    {"sequence": "GTAGTTGCATGGACCGGTTTTCCCGGTAATCCGTATTTGCG (site GTAGTCGCTCG)", "values": [
      {"measurement": "recombinant UMI read abundance (log10)", "value": 1.78}
    ]},
    {"sequence": "GTAGTTGCATGGACCGGTTTTCCCGGTAATCCGTATTTGCG (site GTAGTGGCTCG)", "values": [
      {"measurement": "recombinant UMI read abundance (log10)", "value": 0.373}
    ]},
    {"sequence": "GTAGTTGCATGGACCGGTTTTCCCGGTAATCCGTATTTGCG (site GTAGTTGCTCG)", "values": [
      {"measurement": "recombinant UMI read abundance (log10)", "value": 2.88}
    ]},
    {"sequence": "GTATACACATGGACCGGTTTTCCCGGTAATCCGTATTTGTA (site GTATACACTTA)", "values": [
      {"measurement": "recombinant UMI read abundance (log10)", "value": 2.12}
    ]},
    {"sequence": "GTATACACATGGACCGGTTTTCCCGGTAATCCGTATTTGTA (site GTATCCACTTA)", "values": [
      {"measurement": "recombinant UMI read abundance (log10)", "value": 0}
    ]},
    {"sequence": "GTATACACATGGACCGGTTTTCCCGGTAATCCGTATTTGTA (site GTATGCACTTA)", "values": [
      {"measurement": "recombinant UMI read abundance (log10)", "value": 0.0117}
    ]},
    {"sequence": "GTATACACATGGACCGGTTTTCCCGGTAATCCGTATTTGTA (site GTATTCACTTA)", "values": [
      {"measurement": "recombinant UMI read abundance (log10)", "value": 0.0042}
    ]},
    {"sequence": "GTATAGACATGGACCGGTTTTCCCGGTAATCCGTATTTGCC (site GAATAGACTGG)", "values": [
      {"measurement": "recombinant UMI read abundance (log10)", "value": 2.37}
    ]},
    {"sequence": "GTATAGACATGGACCGGTTTTCCCGGTAATCCGTATTTGCC (site GCATAGACTGG)", "values": [
      {"measurement": "recombinant UMI read abundance (log10)", "value": 2.19}
    ]},
    {"sequence": "GTATAGACATGGACCGGTTTTCCCGGTAATCCGTATTTGCC (site GGATAGACTGG)", "values": [
      {"measurement": "recombinant UMI read abundance (log10)", "value": 0.251}
    ]},
    {"sequence": "GTATAGACATGGACCGGTTTTCCCGGTAATCCGTATTTGCC (site GTATAGACTGG)", "values": [
      {"measurement": "recombinant UMI read abundance (log10)", "value": 2.83}
    ]},
    {"sequence": "GTATATCCATGGACCGGTTTTCCCGGTAATCCGTATTTGGT (site GTATATCCTAC)", "values": [
      {"measurement": "recombinant UMI read abundance (log10)", "value": 1.08}
    ]},
    {"sequence": "GTATCAACATGGACCGGTTTTCCCGGTAATCCGTATTTGAA (site GTATCAACTTT)", "values": [
      {"measurement": "recombinant UMI read abundance (log10)", "value": 1.01}
    ]},
    {"sequence": "GTATCCACATGGACCGGTTTTCCCGGTAATCCGTATTTGTA (site GTATACACTTA)", "values": [
      {"measurement": "recombinant UMI read abundance (log10)", "value": 0.926}
    ]},
    {"sequence": "GTATCCACATGGACCGGTTTTCCCGGTAATCCGTATTTGTA (site GTATCCACTTA)", "values": [
      {"measurement": "recombinant UMI read abundance (log10)", "value": 1.94}
    ]},
    {"sequence": "GTATCCACATGGACCGGTTTTCCCGGTAATCCGTATTTGTA (site GTATGCACTTA)", "values": [
      {"measurement": "recombinant UMI read abundance (log10)", "value": 0.019}
    ]},
    {"sequence": "GTATCCACATGGACCGGTTTTCCCGGTAATCCGTATTTGTA (site GTATTCACTTA)", "values": [
      {"measurement": "recombinant UMI read abundance (log10)", "value": 0.00595}
    ]},
    {"sequence": "GTATGAACATGGACCGGTTTTCCCGGTAATCCGTATTTGTA (site GTATGAACTTA)", "values": [
      {"measurement": "recombinant UMI read abundance (log10)", "value": 2.42}
    ]},
    {"sequence": "GTATGAACATGGACCGGTTTTCCCGGTAATCCGTATTTGTA (site GTATGCACTTA)", "values": [
      {"measurement": "recombinant UMI read abundance (log10)", "value": 0.00699}
    ]},
    {"sequence": "GTATGAACATGGACCGGTTTTCCCGGTAATCCGTATTTGTA (site GTATGGACTTA)", "values": [
      {"measurement": "recombinant UMI read abundance (log10)", "value": 0.255}
    ]},
    {"sequence": "GTATGAACATGGACCGGTTTTCCCGGTAATCCGTATTTGTA (site GTATGTACTTA)", "values": [
      {"measurement": "recombinant UMI read abundance (log10)", "value": 0}
    ]},
    {"sequence": "GTATGATCATGGACCGGTTTTCCCGGTAATCCGTATTTGGG (site GTATGATCTCC)", "values": [
      {"measurement": "recombinant UMI read abundance (log10)", "value": 0.738}
    ]},
    {"sequence": "GTATGCACATGGACCGGTTTTCCCGGTAATCCGTATTTGTG (site GTATGCACTAA)", "values": [
      {"measurement": "recombinant UMI read abundance (log10)", "value": 0.198}
    ]},
    {"sequence": "GTATGCACATGGACCGGTTTTCCCGGTAATCCGTATTTGTG (site GTATGCACTCA)", "values": [
      {"measurement": "recombinant UMI read abundance (log10)", "value": 1.34}
    ]},
    {"sequence": "GTATGCACATGGACCGGTTTTCCCGGTAATCCGTATTTGTG (site GTATGCACTGA)", "values": [
      {"measurement": "recombinant UMI read abundance (log10)", "value": 0.881}
    ]},
    {"sequence": "GTATGCACATGGACCGGTTTTCCCGGTAATCCGTATTTGTG (site GTATGCACTTA)", "values": [
      {"measurement": "recombinant UMI read abundance (log10)", "value": 1.29}
    ]},
    {"sequence": "GTATGCCCATGGACCGGTTTTCCCGGTAATCCGTATTTGTA (site GTATGCACTTA)", "values": [
      {"measurement": "recombinant UMI read abundance (log10)", "value": 0.0189}
    ]},
    {"sequence": "GTATGCCCATGGACCGGTTTTCCCGGTAATCCGTATTTGTA (site GTATGCCCTTA)", "values": [
      {"measurement": "recombinant UMI read abundance (log10)", "value": 0.172}
    ]},
    {"sequence": "GTATGCCCATGGACCGGTTTTCCCGGTAATCCGTATTTGTA (site GTATGCGCTTA)", "values": [
      {"measurement": "recombinant UMI read abundance (log10)", "value": 0.0563}
    ]},
    {"sequence": "GTATGCCCATGGACCGGTTTTCCCGGTAATCCGTATTTGTA (site GTATGCTCTTA)", "values": [
      {"measurement": "recombinant UMI read abundance (log10)", "value": 1.76}
    ]},
    {"sequence": "GTATGCTCATGGACCGGTTTTCCCGGTAATCCGTATTTGTA (site GTATGCACTTA)", "values": [
      {"measurement": "recombinant UMI read abundance (log10)", "value": 0.29}
    ]},
    {"sequence": "GTATGCTCATGGACCGGTTTTCCCGGTAATCCGTATTTGTA (site GTATGCCCTTA)", "values": [
      {"measurement": "recombinant UMI read abundance (log10)", "value": 1.2}
    ]},
    {"sequence": "GTATGCTCATGGACCGGTTTTCCCGGTAATCCGTATTTGTA (site GTATGCGCTTA)", "values": [
      {"measurement": "recombinant UMI read abundance (log10)", "value": 0.0181}
    ]},
    {"sequence": "GTATGCTCATGGACCGGTTTTCCCGGTAATCCGTATTTGTA (site GTATGCTCTTA)", "values": [
      {"measurement": "recombinant UMI read abundance (log10)", "value": 2.99}
    ]},
    {"sequence": "GTATTCGCATGGACCGGTTTTCCCGGTAATCCGTATTTGCG (site GTAATCGCTCG)", "values": [
      {"measurement": "recombinant UMI read abundance (log10)", "value": 0.015}
    ]},
    {"sequence": "GTATTCGCATGGACCGGTTTTCCCGGTAATCCGTATTTGCG (site GTACTCGCTCG)", "values": [
      {"measurement": "recombinant UMI read abundance (log10)", "value": 0.406}
    ]},
    {"sequence": "GTATTCGCATGGACCGGTTTTCCCGGTAATCCGTATTTGCG (site GTAGTCGCTCG)", "values": [
      {"measurement": "recombinant UMI read abundance (log10)", "value": 0.00852}
    ]},
    {"sequence": "GTATTCGCATGGACCGGTTTTCCCGGTAATCCGTATTTGCG (site GTATTCGCTCG)", "values": [
      {"measurement": "recombinant UMI read abundance (log10)", "value": 0.984}
    ]},
    {"sequence": "GTCAATCCATGGACCGGTTTTCCCGGTAATCCGTATTTGAA (site GACAATCCTTT)", "values": [
      {"measurement": "recombinant UMI read abundance (log10)", "value": 0}
    ]},
    {"sequence": "GTCAATCCATGGACCGGTTTTCCCGGTAATCCGTATTTGAA (site GCCAATCCTTT)", "values": [
      {"measurement": "recombinant UMI read abundance (log10)", "value": 0.306}
    ]},
    {"sequence": "GTCAATCCATGGACCGGTTTTCCCGGTAATCCGTATTTGAA (site GGCAATCCTTT)", "values": [
      {"measurement": "recombinant UMI read abundance (log10)", "value": 0.51}
    ]},
    {"sequence": "GTCAATCCATGGACCGGTTTTCCCGGTAATCCGTATTTGAA (site GTCAATCCTTT)", "values": [
      {"measurement": "recombinant UMI read abundance (log10)", "value": 1.07}
    ]},
    {"sequence": "GTCACCCCATGGACCGGTTTTCCCGGTAATCCGTATTTGGT (site GTCACCCCTAC)", "values": [
      {"measurement": "recombinant UMI read abundance (log10)", "value": 0.425}
    ]},
    {"sequence": "GTCACGACATGGACCGGTTTTCCCGGTAATCCGTATTTGAT (site GTCACGACTAT)", "values": [
      {"measurement": "recombinant UMI read abundance (log10)", "value": 1.77}
    ]},
    {"sequence": "GTCACGACATGGACCGGTTTTCCCGGTAATCCGTATTTGGC (site GTCACGACTGC)", "values": [
      {"measurement": "recombinant UMI read abundance (log10)", "value": 1.65}
    ]},
    {"sequence": "GTCATATCATGGACCGGTTTTCCCGGTAATCCGTATTTGTG (site GTCATATCTCA)", "values": [
      {"measurement": "recombinant UMI read abundance (log10)", "value": 2.31}
    ]},
    {"sequence": "GTCCATGCATGGACCGGTTTTCCCGGTAATCCGTATTTGGT (site GTACATGCTAC)", "values": [
      {"measurement": "recombinant UMI read abundance (log10)", "value": 0.0101}
    ]},
    {"sequence": "GTCCATGCATGGACCGGTTTTCCCGGTAATCCGTATTTGGT (site GTCCATGCTAC)", "values": [
      {"measurement": "recombinant UMI read abundance (log10)", "value": 0.891}
    ]},
    {"sequence": "GTCCATGCATGGACCGGTTTTCCCGGTAATCCGTATTTGGT (site GTGCATGCTAC)", "values": [
      {"measurement": "recombinant UMI read abundance (log10)", "value": 0.0138}
    ]}
  ]
}
